{"source": "patent US20240245661A1", "about": "“MCT4-TARGETED THERAPEUTICS PREVENTING AKI TO CKD TRANSITION” (Northwestern University, priority 2023, published 2024)", "key": {"[1]": {"tested_on": "PHD^TiEC mice, post-ischemic kidney", "test": "Unilateral renal IRI in PHD^TiEC mice, post-ischemic treatment", "type": "in vivo, mouse", "details": "day 14 post uIRI", "source_text": "As the primary metabolic response of the post-ischemic endothelium to HIF stabilization in the context of PHD inactivation was increased glycolysis, we next focused on this aspect. While increased lactate generation and efflux via the transporter MCT4 represent the final steps of hypoxia-induced glycolysis, lactate export was recently shown to be among the four key steps controlling glycolytic flux. […] Indeed, immunofluorescence staining confirmed high expression of MCT4 protein in the post-ischemic kidney endothelium of PHD^TiEC (FIG. 10A and FIG. 19). We next sought to investigate whether increased endothelial MCT4 causally contributes to the maladaptive post-ischemic kidney repair observed in the PHD^TiEC mice. To this end, we used syrosingopine, a dual inhibitor of monocarboxylate transporters MCT1 and MCT4 (60-fold higher potency on MCT4), which leads to end-product inhibition of glycolysis. As depicted in FIG. 10B, PHD^TiEC mice were treated with syrosingopine or vehicle starting on day 2 after uIRI and then every other day until day 14 post uIRI. […] MCT4 inhibition diminishes endothelial derived pro-inflammatory responses induced by hypoxia-reoxygenation and IL-1\nMale mice 8-10 weeks of age underwent renal IRI surgery as previously described [Torosyan R, et al. Hypoxic preconditioning protects against ischemic kidney injury through the IDO1/kynurenine pathway. Cell Rep. 2021;36(7):109547]. Anesthesia was induced by IP injection of xylazine (10 mg/kg IP) and ketamine (90-120 mg/kg IP). After making a small midline abdominal incision, the left renal pedicle was occluded by applying a microaneurysm clamp for 25 minutes, while the right kidney was kept intact as an internal control in the unilateral IRI. For bilateral renal IRI, clamps were applied in both renal pedicles for 23 minutes. After the specified time, the clamps were removed, and reperfusion was visually confirmed. The incision site was closed with a 6-0 suture followed by the closure of the skin wound with Michel miniature clips. Throughout the surgical procedure, body temperature was monitored by a rectal probe and controlled with a heating pad at 37° C.\nFor in vivo MCT4 inhibition studies, mice were treated with syrosingopine (7.5 mg/kg) or vehicle starting on day 2 post IRI every other day until dissection on day 14 post IRI.\n(§1) DNA and RNA were extracted and used for genomic or real-time PCR analysis, as previously described [Majmundar A J, et al. Hypoxia-Inducible Factors and the Response to Hypoxic Stress. Mol Cell. 2010; 40(2):294-309]. Real-time PCR was run in the QuantStudio 3 Real-Time PCR system (Applied Biosystems) using SYBR green or TaqMan PCR Master Mix. 18S rRNA was used for normalization.\nFor the histological examination, kidneys were fixed in 10% formalin buffer and paraffin blocks were prepared. To assess tubular damage and interstitial fibrosis, 5-μm transverse plane kidney sections were separately stained with hematoxylin and eosin (H&E) and Picro-Sirius red. […] Fibrosis was assessed by the percentage of Picro-Sirius red^+ve area determined with ImageJ software (http://rsbweb.nih.gov/ij). For tubular injury scoring and quantification of Picro-Sirius red^+ve area ^310 and ^35 random visual fields of corticomedullary region, respectively were analyzed per kidney section for each sample at a magnification of ×200."}, "[2]": {"tested_on": "HPAECs", "test": "Lactate measurements in HPAEC media", "type": "cell-based, human", "details": "5 μM, 24 hours; vs vehicle (DMSO)", "experimental": "Lactate measurements. […] Then, cell media were collected, and lactate levels were measured by a Lactate assay kit (Sigma, Catalog #MAK064) following the kit's instruction and protocol."}, "[3]": {"tested_on": "human primary pulmonary artery endothelial cells (HPAECs)", "test": "EC adhesion molecule mRNA in HPAECs activated by hypoxia/reoxygenation and IL-1β", "type": "cell-based", "details": "5 μM; hypoxia 0.5% O2 18 h, reoxygenation 8 h with IL-1β 1 ng/mL; vs vehicle", "experimental": "(§2) To assess whether MCT4 inhibition acts cell-autonomously in ECs to suppress pro-inflammatory responses, we performed in vitro experiments in which human primary pulmonary artery endothelial cells (HPAECs) were activated by 18 hours exposure to hypoxia (0.5% O2), followed by reoxygenation for 8 hours in the presence of IL-1β treatment (1 ng/mL) (FIG. 11A). To inhibit MCT4, we first used syrosingopine at concentration of 5 μM, which diminished lactate secretion, as indicated by reduction in extracellular lactate levels (FIG. 20A). […] Consistent responses were observed when we used siRNA against MCT4. […] (FIGS. 11D and E).\nas §1\n(§3) Human primary pulmonary artery ECs (HPAECs) were obtained from ATCC and grown on gelatin-coated dishes in Endothelial Cell Basal Medium-2 (Lonza, Catalog #CC-3156) supplemented with EGM-2 SingleQuots Supplements (Lonza, Catalog #CC-4176). MCT4 siRNA was purchased from Qiagen (FlexiTube GeneSolution GS9123 for SLC16A3; Catalog #1027416). […]"}, "[4]": {"tested_on": "THP-1 monocyte adhesion to HPAECs", "test": "Endothelial-monocyte cell adhesion assay", "type": "cell-based, human", "details": "5 μM; hypoxia-reoxygenation and IL-1β; 90 min incubation; vs vehicle", "experimental": "as §2\nas §3, with “#1027416). AllStars negative control siRNA (Qiagen) was used as control siRNA. HiPerFect transfection reagent (Qiagen, Catalog #301707) was used for siRNA transfection experiments.” for “#1027416).”\nEndothelial-monocyte cell adhesion assay. […] After 90 minutes, floating cells were removed, and fluorescent imaging was performed with quantification of the adhered monocytes using Fiji image J."}, "[5]": {"tested_on": "wild type (WT) C57BL/6 mice, post-ischemic (IR) kidney", "test": "Unilateral ischemia reperfusion injury (uIRI) model of AKI, post-ischemic treatment, wild type mice", "type": "in vivo, mouse", "details": "for reduction in fibrosis assessed by Picro Sirius red staining / perfusion of IR kidney (visual): 7.5 mg/kg IP on alternate days from day 2", "experimental": "Wild type (WT) C57BL/6 mice (7 week old) were procured by The Jackson Laboratory and acclimatized for 1 week at standard conditions (23° C.-25° C.; 40-60% humidity with standard diet). Post acclimatization animals were subjected to unilateral ischemia reperfusion (uIRI) model of acute kidney injury (AKI) in mice as described previously. [Rajendran, G et al., 2020, J Am Soc Nephrol 31(3) 501-516] Briefly, adult C57BL/6 mice (8 weeks old) were anesthetized with xylazine (10 mg/kg intraperitoneally) and ketamine (90-120 mg/kg intraperitoneally). Post anesthesia, a small incision in the midline of the abdomen was created and the left renal pedicle was occluded with a microaneurysm clamp, while the right kidney served as an internal control. The abdomen was temporarily partly closed by covering with clean stretch film, and the body temperature was monitored with a rectal probe and maintained at 37° C. using a heating pad. After 25 minutes, the clamps were removed, and reperfusion was visually confirmed. The abdomen was closed with a 6-0 suture and the skin with Michel miniature clips. Post-ischemia reperfusion injury (IRI), mice were randomly divided into two groups: 1. Vehicle treated (WT-Veh) and 2. Syrosingopine treated (WT-Syro). Treatment with syrosingopine or vehicle was initiated on day 2 post-IRI, a time point characterized by established kidney injury. Syrosingopine (Syro) was administered intraperitoneally (7.5 mg/kg body weight, prepared in mixture of DMSO and Tween 80) on alternate days (FIG. 1A). WT-Veh group was treated with mixture of DMSO+Tween 80 (Veh) and served as control group. On days 7 and 14 post-IRI, mice were sacrificed, and kidney damage was examined using standard methods of histopathological and molecular analysis.\nHistopathological Analysis Isolated kidneys were fixed in buffered formalin for 24 h and paraffin blocks were papered using automated tissue processor (Leica Biosystems). 5 μm thick paraffin kidney sections were cut and stained with hematoxylin and eosin, and Picro Sirius red. Images were captured under microscope and were analysed using Image J (National Institutes of Health [NIH]). […] Fibrosis was assessed by the percentage of Picro-Sirius red^+ve area determined with ImageJ software (http://rsbweb.nih.gov/ij). For tubular injury scoring and quantification of Picro-Sirius red^+ve area ^310 and ^35 random visual fields of corticomedullary region, respectively were analyzed per kidney section for each sample at a magnification of ×200.\nRNA and Protein Analyses RNA was isolated using Trizol from contralateral (uninjured right kidney) and IR (post unilateral clamping left kidney) kidneys and used for real-time quantitative PCR (qPCR) analysis of fibrosis and inflammatory related genes. 18S was used to normalize mRNA.\nTotal RNA was extracted using TRIzol reagent (n=4). Bulk RNAseq was performed by Admera Health. RNA integrity was checked with an Agilent Technologies 2100 Bioanalyzer. Poly(A) RNA sequencing libraries were prepared. Paired-ended sequencing was performed on an Illumina sequencing system. FastQC (version v0.11.8) was applied to check the quality of raw reads. Trimmomatic (version v0.38) was applied to cut adaptors and trim low-quality bases with the default setting. STAR Aligner version 2.7.1a was used to align the reads. Picard tools (version 2.20.4) was applied to mark duplicates of mapping. The StringTie version 2.0.4 was used to assemble the RNA-Seq alignments into potential transcripts. The featureCounts (version 1.6.0)/HTSeq was used to count mapped reads for genomic features such as genes, exons, promoter, gene bodies, genomic bins and chromosomal locations. The De-Seq2 (version 1.14.1) was used to do differential analysis."}, "[6]": {"biological_target": "T1, MCT4 (Homo sapiens, UniProt O15427)", "T1 sequence (O15427 2-465 limits assumed)": "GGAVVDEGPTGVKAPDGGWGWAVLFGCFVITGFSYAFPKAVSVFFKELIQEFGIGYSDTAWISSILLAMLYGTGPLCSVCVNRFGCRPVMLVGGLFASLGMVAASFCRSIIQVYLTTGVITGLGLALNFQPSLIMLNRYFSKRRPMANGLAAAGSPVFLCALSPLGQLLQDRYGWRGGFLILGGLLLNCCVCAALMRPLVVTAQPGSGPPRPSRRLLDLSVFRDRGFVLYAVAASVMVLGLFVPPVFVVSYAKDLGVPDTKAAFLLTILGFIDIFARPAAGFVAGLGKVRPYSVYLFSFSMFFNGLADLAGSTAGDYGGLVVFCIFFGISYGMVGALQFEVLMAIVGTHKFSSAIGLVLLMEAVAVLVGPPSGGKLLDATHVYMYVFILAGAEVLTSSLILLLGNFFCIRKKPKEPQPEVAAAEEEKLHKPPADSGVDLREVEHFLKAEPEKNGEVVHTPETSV", "T1 sequence (P35613 140-385 partner limits assumed)": "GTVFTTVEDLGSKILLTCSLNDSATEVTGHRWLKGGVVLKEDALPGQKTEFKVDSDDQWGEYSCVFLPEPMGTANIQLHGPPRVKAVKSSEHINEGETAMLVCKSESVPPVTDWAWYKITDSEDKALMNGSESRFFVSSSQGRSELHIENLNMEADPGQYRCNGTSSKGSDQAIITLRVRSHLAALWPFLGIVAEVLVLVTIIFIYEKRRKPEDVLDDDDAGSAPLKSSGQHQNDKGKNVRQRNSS", "details": "dual MCT1/MCT4 inhibitor; cited from earlier work"}, "[7]": {"details": "7.5 mg/kg every other day from day 2, vs vehicle"}, "[8]": {"details": "day 7 and day 14 post IRI, 7.5 mg/kg IP, vs vehicle, 7.5 mg/kg"}}, "note": "Entries after “also recorded” stand apart in the source; their conditions may differ."}
{"molecule": "CCOC(=O)Oc1c(OC)cc(C(=O)O[C@@H]2C[C@@H]3CN4CCc5c([nH]c6cc(OC)ccc56)[C@H]4C[C@@H]3[C@H](C(=O)OC)[C@H]2OC)cc1OC", "note": "[syrosingopine]", "values": [{"measurement": "reduction in collagen accumulation (Picro-Sirius red)", "setting": "[1]; [7]", "result": "~51", "unit": "%"}, {"measurement": "reduction in tubular injury scoring", "setting": "[1]; [7]", "result": "~37", "unit": "%"}, {"measurement": "Acta2 mRNA level", "setting": "[1]; vs vehicle treated group", "result": "significantly downregulated"}, {"measurement": "Loxl2 mRNA level", "setting": "[1]; vs vehicle treated group", "result": "significantly downregulated"}, {"measurement": "Tgfb1 mRNA level", "setting": "[1]; vs vehicle treated group", "result": "significantly downregulated"}, {"measurement": "extracellular lactate levels", "setting": "[2]", "result": "reduction"}, {"measurement": "ICAM1 mRNA expression", "setting": "[3]", "result": "significantly suppressed"}, {"measurement": "VCAM1 mRNA expression", "setting": "[3]", "result": "significantly suppressed"}, {"measurement": "reduction of adhesion of monocytes (THP-1 cells) to HPAECs", "setting": "[4]", "result": "~48", "unit": "%"}, {"measurement": "Icam1 mRNA level in IR kidney (qPCR)", "setting": "[5]; [8]", "result": "substantially lower levels; also recorded: significant reduction"}, {"measurement": "Loxl2 mRNA level in IR kidney (qPCR)", "setting": "[5]; [8]", "result": "substantially lower levels; also recorded: significant reduction"}, {"measurement": "Tgfβ1 mRNA level in IR kidney (qPCR)", "setting": "[5]; [8]", "result": "substantially lower levels; also recorded: significant reduction"}, {"measurement": "Vcam1 mRNA level in IR kidney (qPCR)", "setting": "[5]; [8]", "result": "substantially lower levels; also recorded: significant reduction"}, {"measurement": "Picro-Sirius red stained area (fibrosis), image analysis", "setting": "[5]; day 7 and day 14 post IRI, vs vehicle-treated controls", "result": "significantly less staining"}, {"measurement": "tubular injury scoring", "setting": "[5]; day 7 and day 14 post-IRI kidneys, 7.5 mg/kg IP, vs vehicle, 7.5 mg/kg", "result": "less injury; also recorded: reduced tubular damage"}, {"measurement": "genes associated with pro-inflammatory pathways (bulk RNA-seq)", "setting": "[5]; day 7 and day 14 post-IRI kidneys, vs vehicle", "result": "suppression"}, {"measurement": "reduction in fibrosis assessed by Picro Sirius red staining", "setting": "[5]; day 7 post IRI, vs vehicle", "result": 25, "unit": "%"}, {"measurement": "reduction in fibrosis assessed by Picro Sirius red staining", "setting": "[5]; day 14 post IRI, vs vehicle", "result": 62, "unit": "%"}, {"measurement": "perfusion of IR kidney (visual)", "setting": "[5]; day 14 post IRI, vs vehicle, 7.5 mg/kg", "result": "improved perfusion"}, {"measurement": "perfusion of IR kidney (visual)", "setting": "[5]; day 14 post IRI, vs vehicle, listed as Syrosingopine, 7.5 mg/kg", "result": "visually better perfused"}, {"measurement": "genes of metabolic pathways, oxidative phosphorylation and fatty acid metabolism (bulk RNA-seq)", "setting": "[5]; day 14 post-IRI kidneys, vs vehicle", "result": "significantly up-regulated; also recorded: upregulated"}, {"measurement": "higher potency towards MCT4 than MCT1", "setting": "[6]", "result": 60, "unit": "fold"}]}
